Legend:
Format in all cases: physicochemical
[1] = Aerosol performances of the pMDI formulations of salmeterol xinafoate microparticles (Next Generation Impactor); settings: pMDI suspension in HFA134a, FEP-coated canisters, nominal dose 25 μg, mean±S.D.
Procedure: (§1) The pMDI formulations were also characterized in terms of aerosol performances. They were assessed using a Next Generation Impactor to according to the procedure described in the European Pharmacopoeia 7th edition, 2011, part 2.9.18.
(§2) Quantification of formoterol fumarate dihydrate (FF) was performed using a HPLC method. The following parameters were determined: • i) delivered dose (DD) is calculated from the cumulative deposition in the […], divided by the number of actuations per experiment; • ii) fine particle mass (FPM) is obtained by interpolation of the cumulative percentage undersize of drug mass deposition versus cut off diameter. The FPM corresponds to particles of diameter ≤5.0 microns, divided by the number of actuations per experiment. • iii) respirable fraction (fine particle fraction=FPF) which is the percent ratio between the fine particle mass and the delivered dose. • iv) mass median aerodynamic diameter (MMAD) which is the diameter around which the mass aerodynamic diameters of the emitted particles are distributed equally;
To prepare pMDI aerosol suspension formulations with a nominal dose of the active ingredient of 25 μg, canisters coated with FEP were filled in a controlled atmosphere room, by successively introducing 3.0 mg the microparticles of Example 5 and then 6 ml pressurized HFA134a gas. The devices were fitted with a 50 μl APTAR valve and a Bespak actuator of 0.3 mm. For comparative purposes, a pMDI aerosol suspension formulations comprising micronized salmeterol xinafoate was also prepared. The pMDI formulations were characterized in terms of aerosol performances. They were assessed as described in Example 3.

[2] = Aerosol performances of the pMDI formulations of formoterol fumarate microparticles (Next Generation Impactor); settings: pMDI suspension in HFA134a, nominal dose 12 μg, mean±S.D.
Procedure: To prepare pMDI aerosol suspension formulations with a nominal dose of the active ingredient of 12 μg, the aluminum canisters were filled in a controlled atmosphere room, by successively introducing 2.4 mg the microparticles of Example 1 and then 10 ml pressurized HFA134a gas. The devices were fitted with a 50 μl APTAR valve and a Bespak actuator of 0.3 mm. For comparative purposes, a pMDI aerosol suspension formulations comprising micronized formoterol fumarate dihydrate was also prepared. The sedimentation rate was determined using a Turbiscan apparatus (Formulaction SA, France).
as §1, §2

[3] = Aerosol performances of the powder formulations (Next Generation Impactor, RS01/7 inhaler); settings: dry powder with alpha-lactose monohydrate carrier, 6 μg drug to 10 mg carrier, mean±S.D.
Procedure: To prepare powder formulations, the microparticles of Example 1 FF-myr 0.5 and Ff-myr 2.0 were mixed in a Turbula mixer with alpha-lactose monohydrate having a mass diameter comprised between 90 and 150 μm as a carrier, to obtain a ratio of 6 μg of drug to 10 mg of carrier. […] Each powder was filled in hard HMPC gelatine capsules, in turn loaded in a RS01/7 unit dose inhaler (Plastiape, Italy).
The aerosol performances were evaluated using a Next Generation Impactor (NGI) according to the procedure described in European Pharmacopoeia 7th edition, 2011, part 2.9.18, pages 281-285. The results (mean±S.D.) in terms of delivered dose (DD), fine particle mass (FPM), fine particle fraction (FPF) and mass median aerodynamic diameter (MMAD), are reported in Table 3.

| Structure (SMILES) | DD (delivered dose) [1] | FPF (fine particle fraction) [1] | FPM (fine particle mass) [1] | MMAD (mass median aerodynamic diameter) [1] | DD (delivered dose) [2] | FPF (fine particle fraction, respirable fraction) [2] | FPM (fine particle mass, ≤5.0 microns) [2] | MMAD (mass median aerodynamic diameter) [2] | DD (delivered dose) [3] | FPF (fine particle fraction) [3] | FPM (fine particle mass) [3] | MMAD (mass median aerodynamic diameter) [3] |
| --- | --- | --- | --- | --- | --- | --- | --- | --- | --- | --- | --- | --- |
| OCc1cc(C(O)CNCCCCCCOCCCCc2ccccc2)ccc1O (stereo not drawn) [SX raw, salmeterol xinafoate] | 14.28 ± 1.72 µg | 29.74 ± 1.75% | 4.23 ± 0.25 µg | 2.79 ± 0.39 μm | – | – | – | – | – | – | – | – |
| COc1ccc(CC(C)NCC(O)c2ccc(O)c(NC=O)c2)cc1.COc1ccc(CC(C)NCC(O)c2ccc(O)c(NC=O)c2)cc1.O.O.O=C(O)/C=C/C(=O)O (stereo not drawn) [FF raw material, formoterol fumarate dihydrate] | – | – | – | – | 8.34 ± 0.32 µg | 81.9 ± 2.9% | 6.84 ± 0.51 µg | 1.92 ± 0.00 μm | 73 ± 0.02 µg | 14.03 ± 0.82% | 0.71 ± 0.04 µg | 2.36 ± 0.05 μm |

Source: patent publication US10993916B2, “Crystalline microparticles of a beta-agonist coated with a fatty acid” (Chiesi Farmaceutici S.p.A., priority 2011, dated 2021)
